Target: T1, IRAK-4 (Homo sapiens, UniProt Q9NWZ3)
T1 sequence (Q9NWZ3 1-460): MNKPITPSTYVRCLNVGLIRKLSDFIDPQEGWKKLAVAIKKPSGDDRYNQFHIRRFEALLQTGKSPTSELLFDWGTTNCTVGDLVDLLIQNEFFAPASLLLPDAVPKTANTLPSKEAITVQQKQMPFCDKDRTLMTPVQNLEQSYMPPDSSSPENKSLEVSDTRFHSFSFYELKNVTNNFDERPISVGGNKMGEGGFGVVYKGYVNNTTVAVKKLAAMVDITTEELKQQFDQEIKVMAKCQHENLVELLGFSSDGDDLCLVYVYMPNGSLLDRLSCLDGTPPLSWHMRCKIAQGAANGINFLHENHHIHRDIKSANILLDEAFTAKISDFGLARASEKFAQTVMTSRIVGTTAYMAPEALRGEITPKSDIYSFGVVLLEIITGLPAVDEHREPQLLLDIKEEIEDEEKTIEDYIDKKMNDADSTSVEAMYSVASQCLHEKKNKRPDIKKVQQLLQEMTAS
Assay: IRAK-4 ELISA, OCI-Ly10 degradation
Assay type: cell-based
Design: endogenous in cells
Details: treated overnight; for Dmax: OCI-Ly10, OCI-Ly10 cells; for DC50 / OCI-LY10 Dmax: OCI-Ly10 cells
Protocol: Reagents: Human IRAK-4 Matched Antibody Pair Kit (Abcam ab218182) and ELISA Accessory Pack (Abcam ab210905).
Cell Treatment and Lysis:
1. OCI-Ly10: 200,000 cells are seeded at 1×10^6/ml in 96-well U-bottom plates 200 ul per well, treated with compound the same day. Incubate overnight. 2. PBMC: 800,000 cells are seeded at 2×10^6/ml in 96-well U-bottom deep-well plates, 400 ul per well, treated with compound the same day. Incubate overnight.
Cell lysate is collected and analyzed by ELISA for IRAK-4 levels.

O=C1CCC(NC(=O)c2ccc(N3CCC(CN4CCC(n5cc6cc(NC(=O)c7cnn8cc(Cl)cnc78)c(OCC7CC7)cc6n5)CC4)CC3)cc2F)C(=O)N1 (stereo not shown) [Example 289]
Dmax: ≥ 90% | DC50: 10 to 50 nM

O=C1CCC(NC(=O)c2ccc(N3CCC(CN4CCC(n5cc6cc(NC(=O)c7cnn8cccnc78)c(OCC7CC7)cc6n5)CC4)CC3)cc2F)C(=O)N1 (stereo not shown) [Example 290]
DC50: 50 to 100 nM | OCI-LY10 Dmax: D (D represents a Dmax value <70)

COc1cc2nn(C3CCN(CC4CN(c5ccc(C(=O)NC6CCC(=O)NC6=O)c(F)c5)C4)CC3)cc2cc1NC(=O)c1cnn2cccnc12 (stereo not shown) [Example 294]
Dmax: 80 to 90% | DC50: 10 to 50 nM

COc1cc2nn(C3CCN(CC4CCN(c5ccc(C(=O)NC6CCC(=O)NC6=O)c(F)c5)CC4)CC3)cc2cc1NC(=O)c1cnn2cccnc12 (stereo not shown) [Example 295]
Dmax: ≥ 90% | DC50: 10 to 50 nM

O=C1CCC(NC(=O)c2ccc(N3CC(CN4CCC(n5cc6cc(NC(=O)c7cnn8cc(Cl)cnc78)c(OCC7CC7)cc6n5)CC4)C3)cc2F)C(=O)N1 (stereo not shown) [Example 299]
Dmax: ≥ 90% | DC50: 10 to 50 nM

COc1cc2nn([C@H]3CC[C@@H](N(C)C4CN(c5ccc6c(c5)C(=O)N(C5CCC(=O)NC5=O)C6=O)C4)CC3)cc2cc1NC(=O)c1cnn2cccnc12 (stereo partly shown) [Example 333]
DC50: ≥ 100 nM

COc1cc2nn([C@H]3CC[C@H](N(C)CC#Cc4ccc5c(c4)C(=O)N(C4CCC(=O)NC4=O)C5=O)CC3)cc2cc1NC(=O)c1cnn2cccnc12 (stereo partly shown) [Example 340]
DC50: 10 to 50 nM | OCI-LY10 Dmax: A (A represents a Dmax value ≥90)

COc1cc2nn(C3CCN(CC4CN(c5ccc6c(c5)n(C)c(=O)n6C5CCC(=O)NC5=O)C4)CC3)cc2cc1NC(=O)c1cnn2cccnc12 (stereo not shown) [Example 380]
DC50: ≥ 100 nM

CC(C)(O)c1cc2nn(C3CCN(CC4CN(c5ccc6c(c5)C(=O)N(C5CCC(=O)NC5=O)C6=O)C4)CC3)cc2cc1NC(=O)c1cnn2cc(Cl)cnc12 (stereo not shown) [Example 391, 6-chloro-N-(2-(1-((1-(2-(2,6-dioxopiperidin-3-yl)-1,3-dioxoisoindolin-5-yl)azetidin-3-yl)methyl)piperidin-4-yl)-6-(2-hydroxypropan-2-yl)-2H-indazol-5-yl)pyrazolo[1,5-a]pyrimidine-3-carboxamide]
Dmax: 80 to 90% | DC50: 10 to 50 nM

CC(C)(O)c1cc2nn(C3CCN(CC4CN(c5ccc6c(c5)C(=O)N(C5CCC(=O)NC5=O)C6=O)C4)CC3)cc2cc1NC(=O)c1cnn2cccnc12 (stereo not shown) [Example 392]
Dmax: 70 to 80% | DC50: 50 to 100 nM

O=C1CCC(N2C(=O)c3ccc(CCN4CCC(N5Cc6cc(NC(=O)c7cnn8cccnc78)c(N7CCOCC7)nc6C5=O)CC4)cc3C2=O)C(=O)N1 (stereo not shown) [Example 405]
Dmax: 70 to 80% | DC50: ≥ 100 nM

O=C1CCC(N2C(=O)c3ccc(N4CC(CN5CCC(N6Cc7cc(NC(=O)c8cnn9cccnc89)c(N8CCOCC8)nc7C6=O)CC5)C4)cc3C2=O)C(=O)N1 (stereo not shown) [Example 406]
Dmax: < 70% | DC50: 50 to 100 nM
